{"source": "paper PMC10349806", "about": "(Nature Communications, 2023)", "key": {"[1]": {"test_system": "PfCRT variant D313A", "assay": "CQ uptake assay, oocytes expressing D313A", "assay_type": "cell-based, Plasmodium falciparum", "method": "(§1) Site-directed mutagenesis of PfCRT^Dd2 was performed as described using the megaprimer method with overlap extension[21],[54]. The primer pairs used are listed in Supplementary Table 6. Please note that a codon-optimized and oocyte-adapted version of PfCRT^Dd2 was used[22] (Supplementary Fig. 16). The resulting DNA fragment was cloned into the SP64T expression vector and verified by sequencing.\n(§2) Oocytes were obtained as described previously. Briefly, adult (>2 years old) female X. laevis frogs (NASCO) were anesthetized in a cooled solution of ethyl 3-amino benzoate methanesulfonate (0.1%, w/v), followed by a surgical removal of parts of the ovary. The ovary lobes were carefully dissected and small pieces of oocytes were incubated in Ca^2+-free ND96 buffer (96 mM NaCl, 2 mM KCl, 1 mM MgCl2 buffered with 5 mM HEPES/NaOH, pH 7.5) supplemented with collagenase D (0.1%, w/v; Roche), BSA (0.5%, w/v), and 9 mm Na2HPO4 at 18 °C for 14-16 h while gentle shaking. After incubation, the oocytes were carefully washed several times with ND96 buffer (96 mM NaCl, 2 mM KCl, 1.8 mM CaCl2, 1 mM MgCl2 buffered with 5 mM HEPES/NaOH, pH 7.5) supplemented with 100 mg l^−1 gentamycin). Defolliculated and healthy-looking stage V-VI oocytes were manually selected for RNA microinjection. The RNA was generated as following: The codon-optimized sequences of PfCRT variants were cloned into the pSP64T expression vector. After vector linearization using the restriction endonucleases BamHI or SalI (New England Biolabs), transcription was performed using the in vitro SP6 mMessage mMachine Kit (Ambion)[34]. The obtained RNA was kept at −80 °C and diluted with nuclease-free water to a concentration of 0.6 μg μl^−1. Precision-bore glass capillary tubes (3.5-inch glass capillaries; Drummond Scientific Co.) were pulled on a vertical puller (P-87 Flaming/Brown micropipette puller, Sutter Instrument Co.), graduated, and placed on a microinjector (Nanoject II Auto-Nanoliter Injector, Drummond Scientific Co.). 50 nl of nuclease-free water alone (control oocytes) or 50 nl of 0.6 μg μl^−1 RNA were injected under stereomicroscopic control. Injected oocytes were incubated for 46–72 h at 18 °C with twice-daily buffer changes before usage in experiments.\nDrug uptake assays were performed as described previously[21],[22],[24],[34]. […] The direction of radio-labeled drug transport is here from the mostly acidic extracellular solution (pH 4.5 or 6.0, as indicated) into the oocyte cytosol (pH ∼ 7.2), which corresponds to the efflux of drug from the acidic digestive vacuole (pH 5.2) into the parasite cytoplasm (pH 7.2). The topology of PfCRT in the oolemma is such that both the N- and C-terminus face the extracellular milieu[3],[22]. In the parasite, the N- and C-terminus face the lumen of the digestive vacuole. CQ uptake kinetics were performed by incubating oocytes in ND96 buffer adjusted to a pH of 4.5, 5.0, 5.5, or 6.0 and supplemented with 50 nM [^3H]CQ and one of 7 different CQ concentrations (10 µM, 50 µM, 100 µM, 200 µM, 300 µM, 400 µM, 500 µM CQ). The reaction was stopped at the 60 min time point, which is in the linear uptake range[22],[34] (Supplementary Fig. 17). For determination of the amount of drug uptake for each oocyte, the reaction medium was removed and the oocytes were washed three times with 2 ml of ice-cold ND96 buffer. Each oocyte was individually transferred to a scintillation vial containing 5% sodium dodecyl sulfate (200 μl) for lysis. The radioactivity of each sample was measured using a liquid scintillation analyzer Tri-Carb 4910 TR (PerkinElmer). Oocytes that were injected with water instead of RNA were analyzed in parallel, representing the uptake of a drug by diffusion and/or endogenous permeation pathways. The resulting value represents the “background“ level of drug accumulation in oocytes (in-depth discussion in[22]). […]"}, "[2]": {"target": "T1, PfCRT variant F268A (Plasmodium falciparum, UniProt Q9N623, A220S/F268A/I356T/K76T/M74I/N326S/N75E/Q271E/R371I)", "T1 sequence (Q9N623 1-424 M74I/N75E/K76T/A220S/F268A/Q271E/N326S/I356T/R371I)": "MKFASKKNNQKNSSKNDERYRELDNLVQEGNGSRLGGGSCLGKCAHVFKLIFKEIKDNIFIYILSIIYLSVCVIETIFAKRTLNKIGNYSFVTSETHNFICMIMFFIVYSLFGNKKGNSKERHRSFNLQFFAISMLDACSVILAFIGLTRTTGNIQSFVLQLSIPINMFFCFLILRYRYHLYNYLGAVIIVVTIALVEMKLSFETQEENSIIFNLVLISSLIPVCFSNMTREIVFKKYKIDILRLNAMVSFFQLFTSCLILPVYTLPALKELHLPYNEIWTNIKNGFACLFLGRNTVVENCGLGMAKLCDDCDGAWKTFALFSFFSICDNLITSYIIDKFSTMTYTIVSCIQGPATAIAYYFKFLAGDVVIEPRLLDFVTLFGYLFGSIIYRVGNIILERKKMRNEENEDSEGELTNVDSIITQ", "assay": "CQ uptake assay, oocytes expressing F268A", "assay_type": "cell-based", "method": "as §1, §2\n(§3) Drug uptake assays were performed as described previously[21],[22],[24],[34]. […] The direction of radio-labeled drug transport is here from the mostly acidic extracellular solution (pH 4.5 or 6.0, as indicated) into the oocyte cytosol (pH ∼ 7.2), which corresponds to the efflux of drug from the acidic digestive vacuole (pH 5.2) into the parasite cytoplasm (pH 7.2). The topology of PfCRT in the oolemma is such that both the N- and C-terminus face the extracellular milieu[3],[22]. In the parasite, the N- and C-terminus face the lumen of the digestive vacuole. CQ uptake kinetics were performed by incubating oocytes in ND96 buffer adjusted to a pH of 4.5, 5.0, 5.5, or 6.0 and supplemented with 50 nM [^3H]CQ and one of 7 different CQ concentrations (10 µM, 50 µM, 100 µM, 200 µM, 300 µM, 400 µM, 500 µM CQ). The reaction was stopped at the 60 min time point, which is in the linear uptake range[22],[34] (Supplementary Fig. 17). […] The radioactivity of each sample was measured using a liquid scintillation analyzer Tri-Carb 4910 TR (PerkinElmer). Oocytes that were injected with water instead of RNA were analyzed in parallel, representing the uptake of a drug by diffusion and/or endogenous permeation pathways. […]"}, "[3]": {"test_system": "PfCRT variant F203A", "assay": "CQ uptake assay, oocytes expressing F203A", "assay_type": "cell-based, Plasmodium falciparum", "method": "as §1, §2, §3"}, "[4]": {"conditions": "D313A, 50 µM CQ, 1 h, mean ± SEM"}, "[5]": {"conditions": "pH 4.5, single replicates, Fig 1d left"}, "[6]": {"conditions": "pH 6.0, single replicates, Fig 1d left"}, "[7]": {"conditions": "F268A, 50 µM CQ, 1 h, mean ± SEM"}, "[8]": {"conditions": "F203A, 50 µM CQ, 1 h, mean ± SEM"}}, "note": "Several values for one entry are separate records, joined by “and”; a condition that tells them apart may be missing. Equal values may be shown once."}
{"smiles": "CCN(CC)CCCC(C)Nc1ccnc2cc(Cl)ccc12", "note": "(stereo not shown) [CQ, chloroquine]", "values": [{"measurement": "Activity at pH 4.5", "setting": "[1]; [4]", "result": "1.49 ± 0.21", "unit": "pmol h-1 oocyte-1"}, {"measurement": "Activity at pH 6.0", "setting": "[1]; [4]", "result": "4.55 ± 0.45", "unit": "pmol h-1 oocyte-1"}, {"measurement": "R-value", "setting": "[1]; D313A, CQ transport at pH 4.5 / pH 6.0", "result": "0.33 ± 0.04"}, {"measurement": "D313A transport activity pH 4.5", "setting": "[1]; [5]", "result": "2.00 pmol oocyte-1 h-1 and 1.13 pmol oocyte-1 h-1 and 1.34 pmol oocyte-1 h-1"}, {"measurement": "D313A R-value", "setting": "[1]; pH 4.5 vs pH 6.0, Fig 1d left", "result": "0.38 and 0.23 and 0.39"}, {"measurement": "D313A transport activity pH 6.0", "setting": "[1]; [6]", "result": "5.27 pmol oocyte-1 h-1 and 4.91 pmol oocyte-1 h-1 and 3.47 pmol oocyte-1 h-1"}, {"measurement": "Activity at pH 4.5", "setting": "[2]; [7]", "result": "1.06 ± 0.19", "unit": "pmol h-1 oocyte-1"}, {"measurement": "Activity at pH 6.0", "setting": "[2]; [7]", "result": "2.93 ± 0.28", "unit": "pmol h-1 oocyte-1"}, {"measurement": "R-value", "setting": "[2]; F268A, CQ transport at pH 4.5 / pH 6.0", "result": "0.40 ± 0.10"}, {"measurement": "F268A transport activity pH 4.5", "setting": "[2]; [5]", "result": "0.75 pmol oocyte-1 h-1 and 1.37 pmol oocyte-1 h-1 and 0.63 pmol oocyte-1 h-1 and 1.50 pmol oocyte-1 h-1"}, {"measurement": "F268A transport activity pH 6.0", "setting": "[2]; [6]", "result": "3.49 pmol oocyte-1 h-1 and 2.31 pmol oocyte-1 h-1 and 3.48 pmol oocyte-1 h-1 and 2.45 pmol oocyte-1 h-1"}, {"measurement": "Activity at pH 4.5", "setting": "[3]; [8]", "result": "0.93 ± 0.19", "unit": "pmol h-1 oocyte-1"}, {"measurement": "Activity at pH 6.0", "setting": "[3]; [8]", "result": "2.55 ± 0.14", "unit": "pmol h-1 oocyte-1"}, {"measurement": "R-value", "setting": "[3]; F203A, CQ transport at pH 4.5 / pH 6.0", "result": "0.36 ± 0.07"}, {"measurement": "F203A transport activity pH 4.5", "setting": "[3]; [5]", "result": "0.48 pmol oocyte-1 h-1 and 1.22 pmol oocyte-1 h-1 and 1.1 pmol oocyte-1 h-1"}, {"measurement": "F203A transport activity pH 6.0", "setting": "[3]; [6]", "result": "2.29 pmol oocyte-1 h-1 and 2.47 pmol oocyte-1 h-1 and 2.88 pmol oocyte-1 h-1"}]}
